From US12161649B2, “Inhibitors of EGFR and methods of use thereof” (DANA-FARBER CANCER INSTITUTE, INC., priority 2018, dated 2024)
Where two headings read alike, the source gives them in different places.

Legend:
T790M/L858R Ba/F3 cells = target: T1, T790M/L858R Ba/F3 cells (Homo sapiens, UniProt P00533, T790M/L858R, cells depend on it); experiment: Ba/F3 cell proliferation (MTS assay); format: cell-based, murine; conditions: antiproliferative activity
T1 construct: The constructs were shuttled into the retroviral vector JP1540 using the BD Creator® System (BD Biosciences)
T1 sequence (P00533 whole entry T790M/L858R): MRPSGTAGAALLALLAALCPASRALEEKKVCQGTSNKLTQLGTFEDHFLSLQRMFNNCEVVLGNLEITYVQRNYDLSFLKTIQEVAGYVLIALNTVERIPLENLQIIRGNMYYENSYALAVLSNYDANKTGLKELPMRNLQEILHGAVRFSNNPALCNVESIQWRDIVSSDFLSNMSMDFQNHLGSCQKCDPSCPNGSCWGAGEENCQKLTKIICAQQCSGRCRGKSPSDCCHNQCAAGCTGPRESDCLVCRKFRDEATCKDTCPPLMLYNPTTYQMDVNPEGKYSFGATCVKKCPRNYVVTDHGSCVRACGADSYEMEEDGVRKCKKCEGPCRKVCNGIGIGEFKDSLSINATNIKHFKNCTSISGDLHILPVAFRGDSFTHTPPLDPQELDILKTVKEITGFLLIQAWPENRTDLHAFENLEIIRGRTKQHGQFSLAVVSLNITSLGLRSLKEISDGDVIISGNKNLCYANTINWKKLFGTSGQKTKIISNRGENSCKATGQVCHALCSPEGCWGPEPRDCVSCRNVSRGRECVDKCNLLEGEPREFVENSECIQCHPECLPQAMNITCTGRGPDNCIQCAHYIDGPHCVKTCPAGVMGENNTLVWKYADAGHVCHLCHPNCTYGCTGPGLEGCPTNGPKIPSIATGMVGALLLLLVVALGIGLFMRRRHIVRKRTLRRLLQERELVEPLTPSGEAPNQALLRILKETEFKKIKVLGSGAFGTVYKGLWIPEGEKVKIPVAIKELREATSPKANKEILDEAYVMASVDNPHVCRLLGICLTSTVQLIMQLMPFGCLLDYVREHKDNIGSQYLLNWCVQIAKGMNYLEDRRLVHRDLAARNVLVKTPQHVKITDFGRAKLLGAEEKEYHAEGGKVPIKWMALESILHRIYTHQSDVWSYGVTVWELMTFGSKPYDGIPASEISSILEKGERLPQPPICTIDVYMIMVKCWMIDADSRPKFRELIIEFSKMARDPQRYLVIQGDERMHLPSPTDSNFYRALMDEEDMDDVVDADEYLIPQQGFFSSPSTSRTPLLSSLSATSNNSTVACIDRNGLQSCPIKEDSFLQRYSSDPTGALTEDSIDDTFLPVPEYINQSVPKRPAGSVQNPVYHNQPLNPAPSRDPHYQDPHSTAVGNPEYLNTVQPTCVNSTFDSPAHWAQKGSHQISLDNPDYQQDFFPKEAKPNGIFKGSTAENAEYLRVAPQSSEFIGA
Procedure: The EGFR mutant L858R, Del E746_A750, L858R/T790M, DelE746_A750/T790M, L858R/T790M/C797S and Del/T790M/C797S Ba/F3 cells were previously described (Zhou et al., Nature 462, (2009), 1070-1074). All cell lines were maintained in RPMI 1640 (Cellgro; Mediatech Inc., Herndon, CA) supplemented with 10% FBS 100 units/mL penicillin, 100 units/mL streptomycin, and 2 mM glutamine. L858R cells were maintained in ACL-4 media (Invitrogen, Carlsbad, CA) supplemented with 5% FBS, 100 units/mL penicillin, 100 units/mL streptomycin, and 2 mM glutamine. The EGFR 1941R mutation was introduced via site directed mutagenesis using the Quick Change Site-Directed Mutagenesis kit (Stratagene; La Jolla, CA) according to the manufacturer's instructions. All constructs were confirmed by DNA sequencing. The constructs were shuttled into the retroviral vector JP1540 using the BD Creator® System (BD Biosciences). Ba/F3 cells were infected with retrovirus and according to standard protocols, as described previously (Zhou 2009). Stable clones were obtained by selection in puromycin (2 μg/ml).
Growth and inhibition of growth was assessed by MTS assay and was performed according to previously established methods (Zhou 2009). The MTS assay is a colorimetric method for determining the number of viable cells that is based on the bioreduction of MTS by cells to a formazan product that is soluble in cell culture medium and can be detected spectrophotometrically. Ba/F3 cells of different EGFR genotypes were exposed to treatment and the number of cells used per experiment determined empirically and has been previously established (Zhou 2009). All experimental points were set up in six wells and all experiments were repeated at least three times. […] The curves were fitted using a non-linear regression model with a sigmoidal dose response.

[1] = target: T2, recombinant EGFR 790M/L858R kinase (Homo sapiens, UniProt P00533, L858R/T790M); experiment: HTRF-based EGFR biochemical assay
T2 construct: Constructs spanning residues 696-1022 of the human EGFR; GST (cleaved yes); made in house; host or cells: Sf9 insect cells
T2 sequence (P00533 696-1022 T790M/L858R): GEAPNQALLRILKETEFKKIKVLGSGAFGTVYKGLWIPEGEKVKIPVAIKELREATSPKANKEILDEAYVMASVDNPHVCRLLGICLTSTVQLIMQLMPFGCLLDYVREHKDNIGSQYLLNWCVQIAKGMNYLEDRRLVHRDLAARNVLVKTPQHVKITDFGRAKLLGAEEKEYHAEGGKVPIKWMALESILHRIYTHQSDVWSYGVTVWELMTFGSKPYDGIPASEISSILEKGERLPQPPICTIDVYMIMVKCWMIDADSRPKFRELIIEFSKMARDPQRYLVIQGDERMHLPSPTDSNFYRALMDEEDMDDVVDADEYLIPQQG
Procedure: EGFR biochemical assays are carried out using a homogeneous time-resolved fluorescence (HTRF) assay. The reaction mixtures contain biotin-Lck-peptide substrate, wild type, or mutant EGFR enzyme in reaction buffer. Enzyme concentrations are adjusted to accommodate varying kinase activity and ATP concentrations. Compounds of the present application are diluted into the assay mixture and IC50 values are determined using 12-point inhibition curves.
Constructs spanning residues 696-1022 of the human EGFR (including wild type and L858R, L858R/T790M, T790M, and T790M/V948R mutant sequences) were prepared in a GST-fusion format using the pTriEX system (Novagen) for expression in Sf9 insect cells essentially as described (Yun et al., PNAS 105, 2070-2075 (2008): Yun et al., Cancer Cell 11, 217-227 (2007)). EGFR kinase proteins were purified by glutathione-affinity chromatography followed by size-exclusion chromatography after cleavage with TEV or thrombin to remove the GST fusion partner following established procedures. (Yun 2008; Yun 2007).
EGFR biochemical assays were carried out using a homogeneous time-resolved fluorescence (HTRF) assay as described previously. The reaction mixtures contained 1 μM biotin-Lck-peptide substrate, wild type or mutant EGFR enzyme in reaction buffer (50 mM HEPES pH 7.1, 10 mM MgCl2, 0.01% BSA, 1 mM TCEP and 0.1 mM […]) at a final volume of 10 μL. Enzyme concentrations were adjusted to accommodate varying kinase activity and ATP concentrations (0.2-0.4 nM L858R/T790M; or 2-4 nM L858R, or 2-4 nM T790M, or 40 nM WT). All reactions were carried out at room temperature in white ProxiPlate™ 384-well Plus plates (PerkinElmer) and were quenched with 5 μL of 0.2 M EDTA at 60 min. Five μL per well of the detection reagent containing 2.5 ng PT66K (Cis-bio) and 0.05 μg SAXL (Prozyme) were added, and the plates were then incubated at room temperature for 1 hour and read with an EnVision plate reader. For IC50 determinations, compounds of the present application were diluted into assay mixture (final DMSO 0.5%), and IC50 values were determined by 12-point inhibition curves (from 50 to 0.000282 μM) in duplicate under the assay conditions as described above.

[2] = absence of cetuximab, read-out: Ba/F3 cellular activity (EC50) T790M/L858R
[3] = read-out: Ba/F3 cellular activity (EC50) T790M/L858R + Cetuximab, presence of 1 μg/mL cetuximab

SMILES	EC50 (T790M/L858R Ba/F3 cells; [2]) [nM]	EC50 (T790M/L858R Ba/F3 cells; [3]) [nM]	IC50 [1] [nM]
O=C(N[C@H]1CNc2ccc(F)cc2N(Cc2ccccc2)C1=O)c1ccc(N2CCOCC2)cn1 [Compound I-8, (S)-N-(1-Benzyl-8-fluoro-2-oxo-2,3,4,5-tetrahydro-1H-benzo[b][1,4]diazepin-3-yl)-5-morpholinopicolinamide]	> 750	> 750	> 750
CN1CCN(c2ccc(NC(=O)N[C@H]3CNc4ccc(F)cc4N(Cc4ccccc4)C3=O)cc2)CC1 [Compound I-2, (S)-1-(1-benzyl-8-fluoro-2-oxo-2,3,4,5-tetrahydro-1H-benzo[b][1,4]diazepin-3-yl)-3-(4-(4-methylpiperazin-1-yl)phenyl)urea]	> 750	> 750	> 750
CN1CCN(c2ccc(C(=O)N[C@H]3CNc4ccc(F)cc4N(Cc4ccccc4)C3=O)cc2)CC1 [Compound I-1, (S)-N-(1-benzyl-8-fluoro-2-oxo-2,3,4,5-tetrahydro-1H-benzo[b][1,4]diazepin-3-yl)-4-(4-methylpiperazin-1-yl)benzamide]	> 750	> 750	> 750
COc1cc(N2CCOCC2)ccc1C(=O)N[C@H]1CNc2ccc(F)cc2N(Cc2ccccc2)C1=O [Compound I-5, (S)-N-(1-benzyl-8-fluoro-2-oxo-2,3,4,5-tetrahydro-1H-benzo[b][1,4]diazepin-3-yl)-2-methoxy-4-morpholinobenzamide]	> 750	> 750	> 750
O=C(Cc1ccc(-n2cnnn2)cc1)N[C@H]1CNc2ccc(F)cc2N(Cc2ccccc2)C1=O [Compound I-9, (S)-2-(4-(1H-tetrazol-1-yl)phenyl)-N-(1-benzyl-8-fluoro-2-oxo-2,3,4,5-tetrahydro-1H-benzo[b][1,4]diazepin-3-yl)acetamide]	> 750	> 750	> 750
O=C1[C@@H](N2Cc3ccc(F)cc3C2=O)CNc2ccc(F)cc2N1Cc1ccccc1 [Compound I-10, (S)-1-benzyl-8-fluoro-3-(6-fluoro-1-oxoisoindolin-2-yl)-1,3,4,5-tetrahydro-2H-benzo[b][1,4]diazepin-2-one]	> 750	< 250	< 250
CN1CCN(c2ccnc(C(=O)N[C@H]3CNc4ccc(F)cc4N(Cc4ccccc4)C3=O)c2)CC1 [Compound I-6, (S)-N-(1-benzyl-8-fluoro-2-oxo-2,3,4,5-tetrahydro-1H-benzo[b][1,4]diazepin-3-yl)-4-(4-methylpiperazin-1-yl)picolinamide]	> 750	> 750	> 750
CN1CCN(c2ccc3c(c2)C(=O)N([C@H]2CNc4ccc(F)cc4N(Cc4ccccc4)C2=O)C3)CC1 [Compound I-13, (S)-1-benzyl-8-fluoro-3-(6-(4-methylpiperazin-1-yl)-1-oxoisoindolin-2-yl)-1,3,4,5-tetrahydro-2H-benzo[b][1,4]diazepin-2-one]	> 750	> 750	> 750
CN1CCN(c2ccc(-c3ccc4c(c3)C(=O)N([C@H]3CNc5ccc(F)cc5N(Cc5ccccc5)C3=O)C4)cc2)CC1 [Compound I-11, (S)-1-benzyl-8-fluoro-3-(6-(4-(4-methylpiperazin-1-yl)phenyl)-1-oxoisoindolin-2-yl)-1,3,4,5-tetrahydro-2H-benzo[b][1,4]diazepin-2-one]	> 750	< 250	< 250
CN1CCN(c2cccc(C(=O)N[C@H]3CNc4ccc(F)cc4N(Cc4ccccc4)C3=O)c2)CC1 [Compound I-4, (S)-N-(1-benzyl-8-fluoro-2-oxo-2,3,4,5-tetrahydro-1H-benzo[b][1,4]diazepin-3-yl)-3-(4-methylpiperazin-1-yl)benzamide]	> 750	> 750	> 750
CN1CCN(c2ccc(-c3ccc4c(c3)CN([C@H]3CNc5ccc(F)cc5N(Cc5ccccc5)C3=O)C4=O)cc2)CC1 [Compound I-14, (S)-1-benzyl-8-fluoro-3-(5-(4-(4-methylpiperazin-1-yl)phenyl)-1-oxoisoindolin-2-yl)-1,3,4,5-tetrahydro-2H-benzo[b][1,4]diazepin-2-one]	> 750	< 250	< 250
COc1ccc(C2=CCNCC2)cc1C(=O)N[C@H]1CNc2ccc(F)cc2N(Cc2ccccc2)C1=O [Compound I-7, (S)-N-(1-benzyl-8-fluoro-2-oxo-2,3,4,5-tetrahydro-1H-benzo[b][1,4]diazepin-3-yl)-2-methoxy-5-(1,2,3,6-tetrahydropyridin-4-yl)benzamide]	> 750	> 750	> 750
O=C(Cc1ccc(N2CCOCC2)cc1)N[C@H]1CNc2ccc(F)cc2N(Cc2ccccc2)C1=O [Compound I-3, (S)-N-(1-benzyl-8-fluoro-2-oxo-2,3,4,5-tetrahydro-1H-benzo[b][1,4]diazepin-3-yl)-2-(4-morpholinophenyl)acetamide]	> 750	> 750	> 750
